Experimental data taken from PubChem BioAssay (NCI).
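96-well plates; 48 h exposure; 5 concentrations. Endpoints by linear interpolation between flanking doses. Not reached: highest tested concentration assigned. The concentration for 50% growth inhibition is given as GI50. TGI is the concentration that stops growth completely.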

Columns and labels:
Experiment in all cases: NCI-60 cell line screen, 48 h
[1] = test system: RXF 393 renal
[2] = test system: DU-145 prostate
[3] = test system: SF-268 CNS
[4] = test system: SK-MEL-28 melanoma
[5] = test system: OVCAR-5 ovarian
[6] = test system: RPMI-8226 leukemia
[7] = test system: HOP-92 NSCLC
[8] = test system: SF-539 CNS
[9] = test system: UACC-257 melanoma
[10] = test system: A549 NSCLC
[11] = test system: HL-60(TB) leukemia
[12] = test system: NCI-H23 lung
[13] = test system: LOX IMVI melanoma
[14] = test system: HOP-62 NSCLC
[15] = test system: SK-OV-3 ovarian
[16] = test system: HCT-116 colon
[17] = test system: 786-0 renal
[18] = test system: PC-3 prostate
[19] = test system: U251 CNS
[20] = test system: EKVX NSCLC
[21] = test system: UACC-62 melanoma
[22] = test system: SK-MEL-5 melanoma
[23] = test system: MDA-MB-231 breast
[24] = test system: SNB-19 CNS
[25] = test system: ACHN renal
[26] = test system: CAKI-1 renal
[27] = test system: T-47D breast
[28] = test system: KM12 colon
[29] = test system: COLO 205 colon
[30] = test system: SNB-75 CNS
[31] = test system: MALME-3M melanoma
[32] = test system: NCI-H226 lung
[33] = test system: HCT-15 colon
[34] = test system: MDA-MB-435
[35] = test system: SF-295 CNS
[36] = test system: UO-31 renal
[37] = test system: OVCAR-8 ovarian
[38] = test system: SR leukemia
[39] = test system: SN12C renal
[40] = test system: HS 578T breast
[41] = test system: IGROV1 ovarian
[42] = test system: CCRF-CEM leukemia
[43] = test system: M14 melanoma
[44] = test system: BT-549 breast
[45] = test system: OVCAR-4 ovarian
[46] = test system: NCI/ADR-RES ovarian
[47] = test system: HT29 colon
[48] = test system: MOLT-4 leukemia
[49] = test system: A498 renal
[50] = test system: MCF7 breast
[51] = test system: TK-10 renal
[52] = test system: NCI-H460 lung
[53] = test system: NCI-H522 lung
[54] = test system: SK-MEL-2 melanoma
[55] = test system: K-562 leukemia
[56] = test system: SW-620 colon
[57] = test system: HCC-2998 colon

CN1CCN(Cc2ccc(NC(=O)c3cncc(C#Cc4cnc5ccc(OCC6(C)COC6)nn45)c3)cc2C(F)(F)F)CC1
GI50 [1]: 113 nM | TGI [1]: 294 nM | GI50 [2]: 164 nM | TGI [2]: 527 nM | GI50 [3]: 117 nM | TGI [3]: 333 nM | GI50 [4]: 167 nM | TGI [4]: 612 nM | GI50 [5]: 172 nM | TGI [5]: 609 nM | GI50 [6]: 223 nM | TGI [6]: 1440 nM | GI50 [7]: 59.5 nM | TGI [7]: 217 nM | GI50 [8]: 91.1 nM | TGI [8]: 573 nM | GI50 [9]: 228 nM | TGI [9]: 829 nM | GI50 [10]: 145 nM | TGI [10]: 433 nM | GI50 [11]: 190 nM | TGI [11]: 604 nM | GI50 [12]: 134 nM | TGI [12]: 462 nM | GI50 [13]: 107 nM | TGI [13]: 322 nM | GI50 [14]: 156 nM | TGI [14]: 518 nM | GI50 [15]: 233 nM | TGI [15]: 747 nM | GI50 [16]: 125 nM | TGI [16]: 476 nM | GI50 [17]: 215 nM | TGI [17]: 720 nM | GI50 [18]: 218 nM | TGI [18]: 830 nM | GI50 [19]: 193 nM | TGI [19]: 715 nM | GI50 [20]: 152 nM | TGI [20]: 641 nM | GI50 [21]: 125 nM | TGI [21]: 577 nM | GI50 [22]: 642 nM | TGI [22]: 1280 nM | GI50 [23]: 73.1 nM | TGI [23]: 243 nM | GI50 [24]: 200 nM | TGI [24]: 668 nM | GI50 [25]: 108 nM | TGI [25]: 465 nM | GI50 [26]: 87.8 nM | TGI [26]: 254 nM | GI50 [27]: 279 nM | TGI [27]: 1150 nM | GI50 [28]: 5 nM | TGI [28]: 352 nM | GI50 [29]: 111 nM | TGI [29]: 236 nM | GI50 [30]: 128 nM | TGI [30]: 357 nM | GI50 [31]: 89 nM | TGI [31]: 303 nM | GI50 [32]: 98.5 nM | TGI [32]: 975 nM | GI50 [33]: 123 nM | TGI [33]: 408 nM | GI50 [34]: 142 nM | TGI [34]: 535 nM | GI50 [35]: 440 nM | TGI [35]: 1070 nM | GI50 [36]: 130 nM | TGI [36]: 436 nM | GI50 [37]: 157 nM | TGI [37]: 547 nM | GI50 [38]: 140 nM | TGI [38]: 1650 nM | GI50 [39]: 112 nM | TGI [39]: 489 nM | GI50 [40]: 80.4 nM | TGI [40]: 321 nM | GI50 [41]: 105 nM | TGI [41]: 437 nM | GI50 [42]: 165 nM | TGI [42]: 15900 nM | GI50 [43]: 84.9 nM | TGI [43]: 218 nM | GI50 [44]: 320 nM | TGI [44]: 940 nM | GI50 [45]: 135 nM | TGI [45]: 757 nM | GI50 [46]: 163 nM | TGI [46]: 580 nM | GI50 [47]: 151 nM | TGI [47]: 639 nM | GI50 [48]: 145 nM | TGI [48]: 16500 nM | GI50 [49]: 142 nM | TGI [49]: 407 nM | GI50 [50]: 86 nM | TGI [50]: 525 nM | GI50 [51]: 149 nM | TGI [51]: 451 nM | GI50 [52]: 194 nM | TGI [52]: 669 nM | GI50 [53]: 96.7 nM | TGI [53]: 204 nM | GI50 [54]: 102 nM | TGI [54]: 218 nM | GI50 [55]: 5 nM | TGI [55]: 50000 nM | GI50 [56]: 121 nM | TGI [56]: 317 nM | GI50 [57]: 199 nM | TGI [57]: 656 nM
